Earlier results, collected in patent publication US10105405B2, “Compositions and methods for enhancing brain function using acetyl-L-carnitine, huperzine A and ginkgo biloba” (priority 2006, dated 2018).

System: aged subjects, patients with benign senescent forgetfulness, Alzheimer's disease (AD) and vascular dementia (VD)

## C/C=C1\[C@H]2C=C(C)C[C@]1(N)c1ccc(=O)[nH]c1C2 [Huperzine A]
Clinical trials in China
  memory deficits: significantly relieves memory deficits
Compared with other AChEIs in use
  peripheral cholinergic side effects: minimal peripheral cholinergic side effects
